Measurements reported in patent publication US9777004B2, “Amino-substituted imidazopyridazines” (Bayer Intellectual Property GmbH, priority 2012, dated 2017).

How the values were obtained:
human full-length MKNK1 [1] = biological target: T1, human full-length MKNK1 (Homo sapiens (Human), UniProt Q9BUB5, T344D); test: MKNK1 kinase assay (TR-FRET); type: biochemical; conditions: 10 μM ATP, 15 min preincubation
Protocol: MKNK1-inhibitory activity of compounds of the present invention was quantified employing the MKNK1 TR-FRET assay as described in the following paragraphs.
As substrate for the kinase reaction the biotinylated peptide biotin-Ahx-[…] (C-terminus in amide form) was used which can be purchased e.g. form the company Biosyntan (Berlin-Buch, Germany).
(§1) For the assay 50 nL of a 100fold concentrated solution of the test compound in DMSO was pipetted into a black low volume 384well microtiter plate (Greiner Bio-One, Frickenhausen, Germany), 2 μL of a solution of MKNK1 in aqueous assay buffer [50 mM HEPES pH 7.5, 5 mM magnesium chloride, 1.0 mM dithiothreitol, 0.005% (v/v) Nonidet-P40 (Sigma)] was added and the mixture was incubated for 15 min at 22° C. to allow pre-binding of the test compounds to the enzyme before the start of the kinase reaction. Then the kinase reaction was started by the addition of 3 μL of a solution of adenosine-tri-phosphate (ATP, 16.7 μM=>final conc. in the 5 μL assay volume is 10 μM) and substrate (0.1 μM=>final conc. in the 5 μL assay volume is 0.06 μM) in assay buffer and the resulting mixture was incubated for a reaction time of 45 min at 22° C. The concentration of MKNK1 was adjusted depending of the activity of the enzyme lot and was chosen appropriate to have the assay in the linear range, typical concentrations were in the range of 0.05 μg/mL. The reaction was stopped by the addition of 5 μL of a solution of TR-FRET detection reagents (5 nM streptavidine-XL665 [Cisbio Bioassays, Codolet, France] and 1 nM anti-ribosomal protein S6 (pSer236)-antibody from Invitrogen [#44921G] and 1 nM LANCE EU-W1024 labeled ProteinG [Perkin-Elmer, product no. AD0071]) in an aqueous EDTA-solution (100 mM EDTA, 0.1% (w/v) bovine serum albumin in 50 mM HEPES pH 7.5).
(§2) The resulting mixture was incubated for 1 h at 22° C. to allow the formation of complex between the phosphorylated biotinylated peptide and the detection reagents. Subsequently the amount of phosphorylated substrate was evaluated by measurement of the resonance energy transfer from the Eu-chelate to the streptavidine-XL. Therefore, the fluorescence emissions at 620 nm and 665 nm after excitation at 350 nm were measured in a TR-FRET reader, e.g. a Rubystar (BMG Labtechnologies, Offenburg, Germany) or a Viewlux (Perkin-Elmer). The ratio of the emissions at 665 nm and at 622 nm was taken as the measure for the amount of phosphorylated substrate.

human full-length MKNK1 [2] = biological target: T1, human full-length MKNK1; test: MKNK1 kinase high ATP assay (TR-FRET); type: biochemical; conditions: 2 mM ATP, 15 min preincubation
Protocol: MKNK1 Kinase High ATP Assay
MKNK1-inhibitory activity at high ATP of compounds of the present invention after their preincubation with MKNK1 was quantified employing the TR-FRET-based MKNK1 high ATP assay as described in the following paragraphs.
As substrate for the kinase reaction the biotinylated peptide biotin-Ahx-[…] (C-terminus in amide form) was used, which can be purchased e.g. from the company Biosyntan (Berlin-Buch, Germany).
as §1, with “3.3 mM=>final” for “16.7 μM=>final”, “2 mM)” for “10 μM)”, “30” for “45”, “0.003” for “0.05”
as §2

T1 sequence (Q9BUB5 other isoform, or with tags, fused parts or gaps T344D): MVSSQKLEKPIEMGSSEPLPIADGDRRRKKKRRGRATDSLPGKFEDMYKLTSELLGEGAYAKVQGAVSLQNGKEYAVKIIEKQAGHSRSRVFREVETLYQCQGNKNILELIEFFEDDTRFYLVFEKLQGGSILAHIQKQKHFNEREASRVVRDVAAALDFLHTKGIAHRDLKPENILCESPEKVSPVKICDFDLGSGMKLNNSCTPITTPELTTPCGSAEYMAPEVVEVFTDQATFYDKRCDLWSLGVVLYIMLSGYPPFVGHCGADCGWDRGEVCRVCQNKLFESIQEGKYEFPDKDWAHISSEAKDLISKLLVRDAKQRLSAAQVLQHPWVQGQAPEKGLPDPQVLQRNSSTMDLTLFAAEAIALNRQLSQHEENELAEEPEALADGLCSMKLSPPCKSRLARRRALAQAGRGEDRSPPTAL

IC50 (human full-length MKNK1 [1]) [nM] | IC50 (human full-length MKNK1 [2]) [nM] | SMILES
98 | 124 | CNCC(Oc1ccc2ncc(-c3cc4ccccc4o3)n2n1)c1ccccc1 (single isomer, unassigned; (-)) [Example 29, (-)-2-{[3-(1-Benzofuran-2-yl)imidazo[1,2-b]pyridazin-6-yl]oxy}-N-methyl-2-phenylethanamine]
 | 55 | CNC(C)COc1ccc2ncc(-c3cc4ccccc4o3)n2n1 (stereo not shown) [Example 24, 1-{[3-(1-Benzofuran-2-yl)imidazo[1,2-b]pyridazin-6-yl]oxy}-N-methylpropan-2-amine]
39 | 91 | Clc1ccc2oc(-c3cnc4ccc(OCC[C@@H]5CCCN5)nn34)cc2c1 [Example 25, 3-(5-Chloro-1-benzofuran-2-yl)-6-{2-[(2S)-pyrrolidin-2-yl]ethoxy}imidazo[1,2-b]pyridazine]
 | 93 | CNCC(C)Oc1ccc2ncc(-c3cc4ccccc4o3)n2n1 (stereo not shown) [Example 26, 2-{[3-(1-Benzofuran-2-yl)imidazo[1,2-b]pyridazin-6-yl]oxy}-N-methylpropan-1-amine]
36 | 75 | CC(C)NCC(Oc1ccc2ncc(-c3cc4ccccc4o3)n2n1)c1ccccc1 (stereo not shown) [Example 27, Formic acid-N-(2-{[3-(1-benzofuran-2-yl)imidazo[1,2-b]pyridazin-6-yl]oxy}-2-phenylethyl)propan-2-amine (1:1)]
227 | 239 | CC(C)(C)CNCC(Oc1ccc2ncc(-c3cc4ccccc4o3)n2n1)c1ccccc1 (stereo not shown) [Example 30, N-(2-{[3-(1-Benzofuran-2-yl)imidazo[1,2-b]pyridazin-6-yl]oxy}-2-phenylethyl)-2,2-dimethylpropan-1-amine]
22 | 49 | c1ccc2oc(-c3cnc4ccc(O[C@@H]5CCNC5)nn34)cc2c1 [Example 31, 3-(1-Benzofuran-2-yl)-6-[(3R)-pyrrolidin-3-yloxy]imidazo[1,2-b]pyridazine]
10 | 15 | Fc1cccc2oc(-c3cnc4ccc(OC[C@H]5CNCCO5)nn34)cc12 [Example 33, 3-(4-Fluoro-1-benzofuran-2-yl)-6-[(2R)-morpholin-2-ylmethoxy]imidazo[1,2-b]-pyridazine]

Further lines, the compound ahead of its results:

SMILES | IC50 (human full-length MKNK1 [1]) [nM] | IC50 (human full-length MKNK1 [2]) [nM]
COc1cccc2oc(-c3cnc4ccc(OC[C@H]5CNCCO5)nn34)cc12 [Example 2, 3-(4-Methoxy-1-benzofuran-2-yl)-6-[(2R)-morpholin-2-ylmethoxy]imidazo[1,2-b]pyridazine] |  | 11
CC(C)(C)CNCCCOc1ccc2ncc(-c3cc4ccccc4o3)n2n1 [Example 4, N-(3-{[3-(1-Benzofuran-2-yl)imidazo[1,2-b]pyridazin-6-yl]oxy}propyl)-2,2-dimethylpropan-1-amine] | 4 | 13
c1ccc2oc(-c3cnc4ccc(OCCNCC5CC5)nn34)cc2c1 [Example 6, 2-{[3-(1-Benzofuran-2-yl)imidazo[1,2-b]pyridazin-6-yl]oxy}-N-(cyclopropylmethyl)ethanamine] | 7 | 18
CC(C)NCCCOc1ccc2ncc(-c3cc4ccccc4o3)n2n1 [Example 9, 3-{[3-(1-Benzofuran-2-yl)imidazo[1,2-b]pyridazin-6-yl]oxy}-N-(propan-2-yl)propan-1-amine] | 7 | 20
CC(C)(C)CNCCOc1ccc2ncc(-c3cc4ccccc4o3)n2n1 [Example 12, N-(2-{[3-(1-Benzofuran-2-yl)imidazo[1,2-b]pyridazin-6-yl]oxy}ethyl)-2,2-dimethylpropan-1-amine] | 11 | 25
c1ccc2oc(-c3cnc4ccc(OCC5CNC5)nn34)cc2c1 [Example 14, 6-(Azetidin-3-ylmethoxy)-3-(1-benzofuran-2-yl)imidazo[1,2-b]pyridazine] |  | 27
c1ccc2oc(-c3cnc4ccc(OCC[C@@H]5CCCN5)nn34)cc2c1 [Example 15, 3-(1-Benzofuran-2-yl)-6-{2-[(2S)-pyrrolidin-2-yl]ethoxy}imidazo[1,2-b]pyridazine] | 12 | 30
c1ccc2oc(-c3cnc4ccc(OCCNC5CC5)nn34)cc2c1 [Example 17, N-(2-{[3-(1-Benzofuran-2-yl)imidazo[1,2-b]pyridazin-6-yl]oxy}ethyl)cyclopropanamine] | 8 | 36
CC(C)(C)NCCOc1ccc2ncc(-c3cc4ccccc4o3)n2n1 [Example 18, N-(2-{[3-(1-Benzofuran-2-yl)imidazo[1,2-b]pyridazin-6-yl]oxy}ethyl)-2-methylpropan-2-amine] | 24 | 37
Clc1ccc2oc(-c3cnc4ccc(OC[C@H]5CNCCO5)nn34)cc2c1 [Example 20, 3-(5-Chloro-1-benzofuran-2-yl)-6-[(2R)-morpholin-2-ylmethoxy]imidazo[1,2-b]pyridazine] |  | 41
